# Data taken from patent publication US5712109A, “Antifungal agent produced by arthrinium arundinis ATCC 74359” (Merck & Co., Inc., priority 1997, dated 1998).
# Assays:
# Type in all cases: cell-based
# [1] = system: Aspergillus fumigatus (MY4839); assay: broth microdilution antifungal assay, Aspergillus fumigatus MY4839
# Procedure: (§1) In the microbroth dilution assay, microorganisms were selected by streaking a yeast culture on Sabouraud dextrose agar (SDA) and incubating for 24-48 hours at 35°-37° C. Three to five characteristic colonies were selected and transferred to a fresh plate and incubated under similar conditions. From the regrowth, 3 to 5 colonies were selected and suspended in 10 milliliters of YM broth (Difco) and incubated for 4 hours at 35°-37° C. shaking at 225 rpm. The 4 hour broth cultures were adjusted optically to 86% transmission resulting in a concentration of 1-5×10^6 cfu/ml which was further diluted 1:100 in YNBD (yeast nitrogen base with 1% dextrose) to obtain a concentration of 1-5×10^4 cfu/ml for use as inocula. […]
# (§2) The plates containing the diluted compounds were then inoculated with 75 μl/well of the appropriate microorganism and incubated for 48 hours at 35°-37° C. with MIC (minimum inhibitory concentration) determinations carded out after 24 hours of incubation (except Cryptococcus strains which are read at 48 hours). […]
# (§3) No MFC values are indicated for Aspergillus furnigatus since colony counts are unreliable with filamentous species. […] The MEC is scored macroscopically by direct observation of the plate wells after 24 hours and reflects microscopic alterations in cell morphology (Kurtz et al, AAC 1994 38:1480-1489).
# [2] = system: Saccharomyces cerevisiae (MY2140); assay: broth microdilution antifungal assay, Saccharomyces cerevisiae MY2140
# Procedure: as §1, §2
# (§4) After recording M/Cs at 24 hours, the microtiter plates were shaken gently to resuspend the cells. […] For Cryptococcus neoformans, SDA plates were inoculated at 48 hours after recording MICs and incubated 48 hours before reading the MFG. […]
# filamentous fungi = assay: agar plate inhibition zone test against filamentous fungi; details: agar plates, 28° C. or 37° C., 24 hours
# Procedure: The compound is also useful for inhibiting the growth of filamentous fungi. Such use may be illustrated in the following tests with Aspergillus flavus, Fusarium oxysporum, Ustilago zeae and the like. Inocula for filamentous fungi are prepared by scraping the surface of stock plates maintained on potato dextrose agar with a moistened sterile dacron swab. The spores and mycelia are then suspended in 10 milliliters of sterile potato dextrose broth and adjusted to 70 percent transmission at 660 nm. The samples to be tested for production of antifungal agent are applied directly to the agar plates as methanol solutions. When the sample to be tested is crude broth, it may be centrifuged prior to application. The assay plates are then incubated at either 28° C. or 37° C. for 24 hours. Following incubation, the inhibition zones are measured. Effects on growth are also noted as to appearance.
# [3] = system: Candida guillermondii (MY1019); assay: broth microdilution antifungal assay, Candida guillermondii MY1019
# Procedure: as §1, §2, §4
# [4] = system: Candida albicans (CLY539); assay: broth microdilution antifungal assay, Candida albicans CLY539
# Procedure: as §1, §2, §4
# [5] = system: Candida glabrata (MY1381); assay: broth microdilution antifungal assay, Candida glabrata MY1381; details: Nakaseomyces glabratus
# Procedure: as §1, §2, §4
# [6] = system: Candida albicans (MY1055); assay: broth microdilution antifungal assay, Candida albicans MY1055
# Procedure: as §1, §2, §4
# [7] = system: Cryptococcus neoformans (MY2062); assay: broth microdilution antifungal assay, Cryptococcus neoformans MY2062
# Procedure: (§5) In the microbroth dilution assay, microorganisms were selected by streaking a yeast culture on Sabouraud dextrose agar (SDA) and incubating for 24-48 hours at 35°-37° C. Three to five characteristic colonies were selected and transferred to a fresh plate and incubated under similar conditions. From the regrowth, 3 to 5 colonies were selected and suspended in 10 milliliters of YM broth (Difco) and incubated for 4 hours at 35°-37° C. shaking at 225 rpm. The 4 hour broth cultures were adjusted optically to 86% transmission resulting in a concentration of 1-5×10^6 cfu/ml which was further diluted 1:100 in YNBD (yeast nitrogen base with 1% dextrose) to obtain a concentration of 1-5×10^4 cfu/ml for use as inocula.
# (§6) The test compound was dissolved at 256 μg/ml in 10% DMSO and diluted 2× into the first well to achieve a concentration of 256 μg/ml at 5% DMSO in the first well. Compounds are subsequently serially diluted 2× and cell suspension is added to each well resulting in an additional 2× dilution of compound. 75 μl of said solution is delivered to each well in colunto 1 of a 96-well, U-bottomed plate. […]
# as §4
# [8] = system: Aspergillus fumigatus (MY5668); assay: broth microdilution antifungal assay, Aspergillus fumigatus MY5668
# Procedure: as §1, §2, §3
# [9] = system: Candida tropicalis (MY1012); assay: broth microdilution antifungal assay, Candida tropicalis MY1012
# Procedure: as §1, §2, §4
# [10] = system: Candida pseudotropicalis (MY2099); assay: broth microdilution antifungal assay, Candida pseudotropicalis MY2099; details: Kluyveromyces marxianus
# Procedure: as §1, §2, §4
# [11] = system: Candida tropicalis (MY1124); assay: broth microdilution antifungal assay, Candida tropicalis MY1124
# Procedure: as §1, §2, §4
# Candida krusei = assay: broth microdilution antifungal assay, Candida krusei; details: Pichia kudriavzevii
# Procedure: as §1, §2, §4
# Candida albicans (CA2) = assay: broth microdilution antifungal assay, Candida albicans CA2
# Procedure: as §1, §2, §4
# panel of fungi = assay: broth microdilution antifungal assay, panel of fungi, comparison with amphotericin B; details: MIC/MFC broth microdilution assay
# Procedure: In the microbroth dilution assay, microorganisms were selected by streaking a yeast culture on Sabouraud dextrose agar (SDA) and incubating for 24-48 hours at 35°-37° C. Three to five characteristic colonies were selected and transferred to a fresh plate and incubated under similar conditions. From the regrowth, 3 to 5 colonies were selected and suspended in 10 milliliters of YM broth (Difco) and incubated for 4 hours at 35°-37° C. shaking at 225 rpm. […]
# as §2, §4, §3
# [12] = system: Cryptococcus neoformans (MY2061); assay: broth microdilution antifungal assay, Cryptococcus neoformans MY2061
# Procedure: as §5, §6, §4
# [13] = system: Candida parapsilosis (MY1010); assay: broth microdilution antifungal assay, Candida parapsilosis MY1010; details: Lodderomyces parapsilosis
# Procedure: as §1, §2, §4
# [14] = 24 hours, 35°-37° C., read-out: Minimum Inhibitory Concentration (MIC)
# [15] = severe morphological change, scored macroscopically after 24 hours, read-out: Minimum Effective Concentration (MEC)
# [16] = no growth or growth of ≤4 colonies on SDA, read-out: Minimum Fungicidal Concentration (MFC)
# [17] = SDA incubated 48 hours, no growth or growth of ≤4 colonies, read-out: Minimum Fungicidal Concentration (MFC)
# [18] = read at 48 hours, 35°-37° C., read-out: Minimum Inhibitory Concentration (MIC)
smiles,measurement,setting,value
CC(CCC(O)C(C)(O)CO)C1(O)CCC2(C)C3=C(CCC21C)C1(C)CCC(OC(=O)CCC(=O)O)C(C)(C)C1CC3 (centres unmarked) [Compound I],MIC,[1]; [14],> 64 µg/mL
same,minimal effective concentration,[1]; [15],0.5 µg/mL
same,MIC,[2]; [14],8 µg/mL
same,MFC,[2]; [16],8 µg/mL
same,inhibition of growth of the fungal organisms (inhibition zones),filamentous fungi,effectively inhibit growth of the fungal organisms
same,MIC,[3]; [14],64 µg/mL
same,MFC,[3]; [16],64 µg/mL
same,MIC,[4]; [14],2 µg/mL
same,MFC,[4]; [16],2 µg/mL
same,MIC,[5]; [14],2 µg/mL
same,MFC,[5]; [16],1 µg/mL
same,MIC,[6]; [14],4 µg/mL
same,MFC,[6]; [16],4 µg/mL
same,MFC,[7]; [17],64 µg/mL
same,MIC,[7]; [18],32 µg/mL
same,MIC,[8]; [14],64 µg/mL
same,minimal effective concentration,[8]; [15],1 µg/mL
same,MIC,[9]; [14],16 µg/mL
same,MFC,[9]; [16],16 µg/mL
same,MIC,[10]; [14],8 µg/mL
same,MFC,[10]; [16],8 µg/mL
same,MIC,[11]; [14],8 µg/mL
same,MFC,[11]; [16],8 µg/mL
same,MIC,Candida krusei; [14],4 µg/mL
same,MFC,Candida krusei; [16],2 µg/mL
same,MIC,Candida albicans (CA2); [14],16 µg/mL
same,MFC,Candida albicans (CA2); [16],16 µg/mL
same,effectiveness against a panel of fungi relative to amphotericin B,panel of fungi,"at concentrations comparable to an established antifungal agent, amphotericin B"
same,MFC,[12]; [17],32 µg/mL
same,MIC,[12]; [18],> 64 µg/mL
same,MIC,[13]; [14],4 µg/mL
same,MFC,[13]; [16],2 µg/mL
